Literature values, collected in patent US11324771B2 (priority 2020, dated 2022).
Read-outs that look alike come from different tables or passages of the source.

Experiments:
[1] = not given; remark: listed apart in the source

cobinamide dihydroxide dihydrogen phosphate (ester), mono (inner salt), 3′-ester with 5,6-dimethyl-1-α-D-ribofuranosyl-1H-benzimidazole [Hydroxocobalamin]
solubility in acetone (acetone): practically insoluble
solubility in benzene (benzene): practically insoluble
solubility in chloroform (chloroform): practically insoluble
solubility in dimethyl sulfoxide (dimethyl sulfoxide): freely soluble
solubility in diethyl ether / ether (ether): practically insoluble
solubility in ethyl acetate (ethyl acetate): practically insoluble
solubility in methanol (methanol): freely soluble
solubility in water (water): freely soluble
solubility in aqueous buffer ([1]; pH 1.2): highly soluble
solubility in aqueous buffer ([1]; pH 4.5): highly soluble
solubility in aqueous buffer ([1]; pH 6.8): < 400 µg/mL
solubility in aqueous buffer ([1]; pH 7.5): < 400 µg/mL
